Values joined by “and” are separate entries in the source; they are usually repeats but may differ in a detail not shown here. Equal entries are not always repeated. Blank lines part the entries; values can stand above or below the molecule they belong to.
Experiments:
[1] = pharmacokinetic study of five major components after oral administration of BZD (HPLC-QQQ MS); assay type: in vivo, Sprague–Dawley (SD) rats; conditions: for ER (liver extraction ratio): from portal vein plasma and systemic plasma
Method: The HPLC-QQQ MS method was developed according to a previous study in our group. Briefly, five compounds were simultaneously determined in plasma, liver and brain samples using a 1260 Series liquid chromatography system (Agilent Technologies, Palo Alto, CA, USA) coupled to a 6460 triple quadrupole mass spectrometer with an electrospray ionization source (Agilent Technologies, Palo Alto, CA, USA). Chromatographic separation was performed on an ACE Super C18 column (100 mm × 2.1 mm, 3.0 µm, Advanced Chromatography Technologies Ltd. Aberdeen, Scotland) at a temperature of 40 °C. The mobile phase consisted of water containing 0.1% formic acid (A) and acetonitrile containing 0.1% formic acid (B). The gradient program was performed as follows: 0–3 min, 92% A; 3.5–4.0 min, 88–60% A; 5.5–6 min, 60–55% A; 6.6–7 min, 55–5% A; 11–11.01 min, 5–92% A; 11.01–13.5 min, 92% A. The flow rate was set to 0.35 mL/min in the time range of 0–6.6 min and kept at 0.45 mL/min between 7 and 13.5 min. Five components were monitored in negative multiple reaction monitoring (MRM) mode. The parameters of the mass spectrometer were as follows: capillary voltage, 3500 V; nebulizer, 45 psi; gas temperature, 350 °C; gas flow rate, 12 L/min; sheath gas temperature, 400 °C; sheath gas flow rate, 8 L/min. MassHunter Workstation software (Agilent Technologies, Palo Alto, CA, USA) was used for system operation and data analysis.
All Sprague–Dawley (SD) rats and ICR mice were purchased from Shanghai SLAC Laboratory Animal Co., Ltd. and kept in the breeding room at 22 ± 2 °C and 50 ± 10% humidity in Shanghai Institute of Materia Medica (SIMM). The experimental protocols were approved by the Institutional Animal Care and Use Committee in SIMM. After 1 week of acclimation, all the SD rats were orally administered BZD (15 g/kg). The biological samples were collected from the rats after fasting for 12 h. After anaesthetization, the rats were dissected at 5 min, 15 min, 30 min, 1 h, 2 h, 4 h, 7 h, 10 h, 20 h and 40 h (n = 5 for each time-point). The hepatic portal vein plasma (2 mL) and the systemic plasma (6–8 mL) were subsequently harvested, and finally the liver and brain tissue samples were collected. The plasma sample were centrifuged at 9500×g for 5 min, and the tissue samples were washed with saline solution. All samples were stored at − 80 °C until analysis. The samples were prepared according to the method described in the previous study by our group.
A noncompartmental analysis was carried out using WinNonlin software (Pharsight 6.2, NC, USA) to calculate the PK parameters. The significance of the results in behavior assessment was analyzed by unpaired Student’s t-tests. A P value less than 0.05 was considered significant. The liver extraction ratio (ER) indicated the fraction of hepatic clearance and first-pass effect, and the calculation formula was as reported in a previous study by our group.

depressive rats = conditions: rats; by regulating inflammatory cytokines, BNDF signaling and synaptic plasticity; cited from earlier work
ICR mice [2] = experiment: forced swimming test (FST); assay type: in vivo; conditions: Table 4, oral administration for 8 days, n = 8, 10 mg/kg, control 118.1 ± 24.3
Method: (§1) The antidepressant activity of the drugs was evaluated by classic behavioral measurements, such as the forced swimming test (FST) and tail suspension test (TST). All the ICR mice were randomly divided into several groups (n = 8) as follows: a control group with stimulation and different test groups subjected to FST and TST after the oral administration of different drugs for 8 days, including fluoxetine (10 mg/kg), BZD (3 g/kg), ZD (3 g/kg), Baihe decoction (BD, 3 g/kg), PZ (21.2 mg/kg), XZ (21.2 mg/kg), SZ (21.2 mg/kg), timosaponin BII (10 mg/kg) and timosaponin BIII (10 mg/kg).
(§2) The FST was performed according to a previously described method with minor modifications. Briefly, each mouse was individually placed in an open water-filled cylinder (H: 50 cm; Ø: 20 cm; water depth: 35 cm; temperature: 23–25 °C) and allowed to swim for a period of 6 min. The total time of immobility was recorded during the last 4 min of the testing duration. Immobility is defined as the mice floating in the water without movement. The TST was conducted as described in the literature. Briefly, the mice were suspended 20 cm above the floor for 6 min. The time of immobility was recorded after the first 2 min. Mice in a completely motionless state were considered immobile.

ICR mice [3] = experiment: tail suspension test (TST); assay type: in vivo; conditions: Table 4, oral administration for 8 days, n = 8, 10 mg/kg, control 102.0 ± 16.9
Method: as §1, §2

dopamine (DA) = experiment: content of dopamine (DA) by ELISA kit; assay type: in vivo, ICR mice; conditions: Table 5; 10 mg/kg oral; control 171.6 ± 54.5
Method: as §1
(§3) The contents of dopamine (DA) and serotonin (5-HT) in the plasma were determined using ELISA Kits (Shanghai Jianglai Biotech Co., Ltd., Shanghai, China) according to the manufacturer’s instructions.

serotonin (5-HT) = experiment: content of serotonin (5-HT) by ELISA kit; assay type: in vivo, ICR mice; conditions: Table 5; 10 mg/kg oral; control 636.2 ± 80.1
Method: as §1, §3

[4] = Sprague-Dawley, rat, in vivo, po, 15 g/kg
[5] = cerebellum, rats, oral BZD 15 g/kg, n = 5
[6] = hippocampus, rats, oral BZD 15 g/kg, n = 5
[7] = liver, rats, oral BZD 15 g/kg, n = 5
[8] = portal vein plasma, rats, oral BZD 15 g/kg, n = 5
[9] = systemic plasma, rats, oral BZD 15 g/kg, n = 5

Cmax [1, 4]: 889.36 ± 191.49 ng/mL | Tmax [1, 4]: 1.00 h | AUC(0-t) ([1]; Sprague-Dawley, rat, in vivo, po, 15 g/kg, AUC0–t): 4.02 ± 0.397 µg·h/mL | Cmax ([1]; Sprague-Dawley, rat, in vivo, po, 15 g/kg, Cmax): 131 ng/g and 1760 ng/mL
Compound: O=c1c2cc(O)c(O)cc2oc2cc(O)c([C@@H]3O[C@H](CO)[C@@H](O)[C@H](O)[C@H]3O)c(O)c12 [Mangiferin, mangiferin]

Compound: CC1=C(CC[C@H](C)CO[C@@H]2O[C@H](CO)[C@@H](O)[C@H](O)[C@H]2O)O[C@H]2C[C@H]3[C@@H]4CC[C@@H]5C[C@@H](O[C@@H]6O[C@H](CO)[C@H](O)[C@H](O)[C@H]6O[C@@H]6O[C@H](CO)[C@@H](O)[C@H](O)[C@H]6O)CC[C@]5(C)[C@H]4CC[C@]3(C)[C@@H]12 [Timosaponin BIII, timosaponin BIII]
antidepressant effect (depressive rats): significantly ameliorated depressive effects | Immobility time (mean ± SD, s) FST (ICR mice [2]): 68.6 ± 23.2 s | Immobility time (mean ± SD, s) TST (ICR mice [3]): 58.4 ± 15.6 s | Content (ng/g) DA (dopamine (DA)): 191.3 ± 69.8 ng/g | Content (ng/g) 5-HT (serotonin (5-HT)): 705.6 ± 47.7 ng/g | Cmax [1, 5]: 349.41 ± 34.90 ng/g | T1/2 [1, 5]: 20.65 h | Tmax [1, 5]: 0.25 h | ER (liver extraction ratio) ([1]; rats, oral BZD 15 g/kg): 11.57% | ER (liver extraction ratio) ([1]; rats, oral BZD 15 g/kg, listed as timosaponin BIII): 11.57% | Cmax [1, 6]: 198.23 ± 122.31 ng/g | T1/2 [1, 6]: 1.52 h | Tmax [1, 6]: 1.00 h | Cmax [1, 7]: 158.66 ± 22.12 ng/g | T1/2 [1, 7]: 13.81 h | Tmax [1, 7]: 0.08 h | AUC0–t [1, 8]: 369.20 ± 74.63 ng/mL | Cmax [1, 8]: 226.39 ± 43.92 ng/mL | T1/2 [1, 8]: 16.59 h | Tmax [1, 8]: 0.25 h | AUC0–t [1, 9]: 326.47 ± 54.29 ng/mL | Cmax [1, 9]: 114.14 ± 13.38 ng/mL | T1/2 [1, 9]: 22.82 h | Tmax [1, 9]: 0.25 h

Source: publication PMC6757420, “Identifying the active components of Baihe–Zhimu decoction that ameliorate depressive disease by an effective integrated strategy: a systemic pharmacokinetics study combined with classical depression model tests” (Chinese Medicine, 2019)
